In patent US9730937B2, “RAF kinase modulator compounds and methods of use thereof” (AMBIT BIOSCIENCES CORPORATION, priority 2008, dated 2017):
Structures can show the parent of a compound that is named as a salt. Where two headings read alike, the source gives them in different places.

Assays:
wild type BRAF kinase = wild type BRAF kinase (Homo sapiens (Human), UniProt P15056); details: read-out: BRAF WT Kd, class symbols
mutant BRAF kinase = mutant BRAF kinase (Homo sapiens (Human), UniProt P15056, V600E); details: read-out: BRAF V600E Kd, class symbols
[1] = system: panel of 290 distinct kinases (321 in the larger panel), excluding mutant variants; details: kinase selectivity score, class symbols
Method: (§1) The liganded beads were blocked with excess biotin and washed with blocking buffer (SeaBlock (Pierce), 1% BSA, 0.05% Tween 20, 1 mM DTT) to remove unbound ligand and to reduce non-specific binding. […] Test compounds were prepared as 100× stocks in DMSO and rapidly diluted into the aqueous environment. DMSO was added to control assays lacking a test compound. Primary screen interactions were performed in polypropylene 384-well plates in a final volume of 34 μL, while Kd determinations were performed in polystyrene 96-well plates in a final volume of 135 μL. […] The kinase concentration in the eluates was measured by quantitative PCR. Each kinase was tested individually against each compound. KdS were determined using eleven serial threefold dilutions. A selectivity score, which is a quantitative measure of selectivity of a compound against a panel of enzymes, may be calculated for a compound by dividing the number of enzymes for which a compound meets a set criteria, (for example, a binding constant of 100 nM or less), by the total number of enzymes tested. […] (Note, for those compounds tested in a larger kinase panel, as indicated by an asterisk (*) next to the S35 score, the divisor is 321 (i.e. the larger panel contains 321 distinct kinases, excluding mutant variants.)).

RAF kinases = RAF kinases (Homo sapiens (Human), UniProt P04049); details: read-out: RAF1 Kd, class symbols
Method: as §1

[2] = value marked * (larger kinase panel)

wild type BRAF kinase, sequence (P15056 whole entry): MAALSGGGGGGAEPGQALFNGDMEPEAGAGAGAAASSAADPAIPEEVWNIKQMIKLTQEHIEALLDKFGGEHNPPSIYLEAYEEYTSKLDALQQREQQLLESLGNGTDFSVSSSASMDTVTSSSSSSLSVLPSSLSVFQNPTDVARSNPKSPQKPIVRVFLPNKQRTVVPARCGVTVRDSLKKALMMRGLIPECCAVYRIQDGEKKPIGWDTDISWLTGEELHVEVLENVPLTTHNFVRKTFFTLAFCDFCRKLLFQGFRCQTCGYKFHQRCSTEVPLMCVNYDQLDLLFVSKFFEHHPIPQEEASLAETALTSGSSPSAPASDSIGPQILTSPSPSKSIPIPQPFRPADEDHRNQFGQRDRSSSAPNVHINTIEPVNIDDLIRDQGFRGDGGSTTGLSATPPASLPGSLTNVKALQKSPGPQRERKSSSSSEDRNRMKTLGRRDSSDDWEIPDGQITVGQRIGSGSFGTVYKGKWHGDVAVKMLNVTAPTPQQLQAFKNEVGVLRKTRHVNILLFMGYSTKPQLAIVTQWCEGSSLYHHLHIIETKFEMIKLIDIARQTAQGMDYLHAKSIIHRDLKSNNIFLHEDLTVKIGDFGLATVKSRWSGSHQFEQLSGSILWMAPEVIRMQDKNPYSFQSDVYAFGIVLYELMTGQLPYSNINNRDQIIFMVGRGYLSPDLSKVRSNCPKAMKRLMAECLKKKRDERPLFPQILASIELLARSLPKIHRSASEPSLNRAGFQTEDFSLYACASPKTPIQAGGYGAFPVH
RAF kinases, sequence (P04049 whole entry): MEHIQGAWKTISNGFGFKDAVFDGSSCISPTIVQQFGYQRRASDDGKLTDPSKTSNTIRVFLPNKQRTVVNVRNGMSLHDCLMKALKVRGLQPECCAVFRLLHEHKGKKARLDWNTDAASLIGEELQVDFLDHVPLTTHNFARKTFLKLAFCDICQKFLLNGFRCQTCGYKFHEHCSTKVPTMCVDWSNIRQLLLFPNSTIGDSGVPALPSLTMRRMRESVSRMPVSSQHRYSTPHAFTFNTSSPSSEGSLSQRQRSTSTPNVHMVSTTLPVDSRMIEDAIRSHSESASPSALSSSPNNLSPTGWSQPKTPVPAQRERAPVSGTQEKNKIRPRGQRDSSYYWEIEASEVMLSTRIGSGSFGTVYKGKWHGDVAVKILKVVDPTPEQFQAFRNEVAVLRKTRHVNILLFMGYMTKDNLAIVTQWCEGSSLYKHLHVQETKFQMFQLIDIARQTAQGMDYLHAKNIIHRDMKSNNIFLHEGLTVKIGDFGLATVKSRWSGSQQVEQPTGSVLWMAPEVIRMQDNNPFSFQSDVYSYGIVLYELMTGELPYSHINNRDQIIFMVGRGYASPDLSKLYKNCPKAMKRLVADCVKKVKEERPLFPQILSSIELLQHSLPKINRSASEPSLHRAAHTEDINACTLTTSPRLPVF
mutant BRAF kinase, sequence (P15056 whole entry V600E): as the sequence (P15056 whole entry) above, with V600E counted along it

Row | Structure (SMILES) | Kd (wild type BRAF kinase) [nM] | Kd (mutant BRAF kinase) [nM] | S35 ([1]; 290 distinct kinases) | Kd (RAF kinases) [nM] | S35 [1, 2]
1 | COc1cc2ncnc(Oc3cccc(NC(=O)Nc4cc(C(C)(C)C)on4)c3)c2cc1OC [Ex 1, 1-(5-tert-butylisoxazol-3-yl)-3-(3-(6,7-dimethoxyquinazolin-4-yloxy)phenyl)urea] | > 1000 | < 250 | C (0.20 < C ≦ 0.40) | – | –
2 | CCOc1cc2ncnc(Oc3cccc(NC(=O)Nc4cc(C(C)(C)C)on4)c3)c2cc1OC [Ex 6, 1-(5-tert-butylisoxazol-3-yl)-3-[3-(7-ethoxy-6-methoxyquinazolin-4-yloxy)phenyl]urea hydrochloride] | > 1000 | < 250 | D (D > 0.40) | – | –
3 | COc1cc2ncnc(Oc3cc(NC(=O)Nc4cc(C(C)(C)C)on4)ccc3F)c2cc1OC [Ex 9, 1-(5-tert-butylisoxazol-3-yl)-3-(3-(6,7-dimethoxyquinazolin-4-yloxy)-4-fluorophenyl)urea] | > 1000 | < 250 | D (D > 0.40) | – | –
4 | COc1cc2ncnc(Oc3cc(NC(=O)Nc4cc(C(C)(C)C)on4)ccc3Cl)c2cc1OC [Ex 10, 1-(5-tert-butylisoxazol-3-yl)-3-(4-chloro-3-(6,7-dimethoxyquinazolin-4-yloxy)phenyl)urea] | > 1000 | – | C (0.20 < C ≦ 0.40) | > 1000 | –
5 | CCOc1cc2c(Oc3cccc(NC(=O)Nc4cc(C(C)(C)C)on4)c3)ncnc2cc1OC [Ex 11, 1-(5-tert-butylisoxazol-3-yl)-3-(3-(6-ethoxy-7-methoxyquinazolin-4-yloxy)phenyl)urea] | > 1000 | < 250 | C (0.20 < C ≦ 0.40) | – | –
6 | CCOc1cc2ncnc(Oc3cccc(NC(=O)Nc4cc(C(C)(C)C)on4)c3)c2cc1OCC [Ex 13, 1-(5-tert-butylisoxazol-3-yl)-3-[3-(6,7-diethoxyquinazolin-4-yloxy)phenyl]urea hydrochloride] | > 1000 | – | C (0.20 < C ≦ 0.40) | > 1000 | –
7 | COc1cc2c(Oc3cccc(NC(=O)Nc4cc(C(C)(C)C)on4)c3)ncnc2cc1OCCCN1CCN(CCO)CC1 [Ex 30, 1-(5-tert-butylisoxazol-3-yl)-3-(3-(7-(3-(4-(2-hydroxyethyl)piperazin-1-yl)propoxy)-6-methoxyquinazolin-4-yloxy)phenyl)urea] | < 250 | < 250 | D (D > 0.40) | – | –
8 | COCCOc1ccc2ncnc(Oc3cccc(NC(=O)Nc4cc(C(C)(C)C)on4)c3)c2c1 [Ex 40, 1-(5-tert-butylisoxazol-3-yl)-3-(3-(6-(2-methoxyethoxy)quinazolin-4-yloxy)phenyl)urea] | > 1000 | < 250 | C (0.20 < C ≦ 0.40) | – | –
9 | CC(C)(C)c1cc(NC(=O)Nc2cccc(Sc3ncnc4cc(F)c(F)cc34)c2)no1 [Ex 47, 1-(5-tert-butylisoxazol-3-yl)-3-(3-(6,7-difluoroquinazolin-4-ylthio)phenyl)urea] | > 1000 | – | A (A ≦ 0.10) | > 1000 | –
10 | COc1ccc2c(Sc3cccc(NC(=O)Nc4cc(C(C)(C)C)on4)c3)ncnc2c1 [Ex 48, 1-(5-tert-butylisoxazol-3-yl)-3-(3-(7-methoxyquinazolin-4-ylthio)phenyl)urea] | > 1000 | – | C (0.20 < C ≦ 0.40) | > 1000 | –
11 | CCOc1cc2ncnc(Sc3cccc(NC(=O)Nc4cc(C(C)(C)C)on4)c3)c2cc1OCC [Ex 51, 1-(5-tert-butylisoxazol-3-yl)-3-[3-(6,7-diethoxyquinazolin-4-ylthio)phenyl]urea] | > 1000 | – | C (0.20 < C ≦ 0.40) | > 1000 | –
12 | CC(C)(C)c1cc(NC(=O)Nc2cccc(Sc3ncnc4cc5c(cc34)OCCO5)c2)no1 [Ex 54, 1-(5-tert-butylisoxazol-3-yl)-3-[3-(7,8-dihydro-[1,4]dioxino[2,3-g]quinazolin-4-ylthio)phenyl]urea hydrochloride] | > 1000 | – | C (0.20 < C ≦ 0.40) | > 1000 | –
13 | COc1cc2ncnc(Sc3cccc(NC(=O)Nc4cc(C(C)(C)C)on4)c3)c2cc1OCCN1CCCCC1 [Ex 65, 1-(5-tert-butylisoxazol-3-yl)-3-(3-(7-methoxy-6-(2-(piperidin-1-yl)ethoxy)quinazolin-4-ylthio)phenyl)urea] | > 1000 | < 250 | C (0.20 < C ≦ 0.40) | – | –
14 | COc1cc2c(Sc3cccc(NC(=O)Nc4cc(C(C)(C)C)on4)c3)ncnc2cc1OCCN1CCC(CO)CC1 [Ex 86, 1-(5-tert-butylisoxazol-3-yl)-3-(3-(7-(2-(4-(hydroxymethyl)piperidin-1-yl)ethoxy)-6-methoxyquinazolin-4-ylthio)phenyl)urea] | > 1000 | – | C (0.20 < C ≦ 0.40) | – | –
15 | COCCOc1ccc2ncnc(Sc3cccc(NC(=O)Nc4cc(C(C)(C)C)on4)c3)c2c1 [Ex 87, 1-(5-tert-butylisoxazol-3-yl)-3-(3-(6-(2-methoxyethoxy)quinazolin-4-ylthio)phenyl)urea] | > 1000 | – | C (0.20 < C ≦ 0.40) | – | –
16 | COc1cc(OC2CCOCC2)c2c(Oc3cccc(NC(=O)Nc4cc(C(C)(C)C)on4)c3)ncnc2c1 [Ex 94, 1-(5-tert-butylisoxazol-3-yl)-3-{3-[7-methoxy-5-(tetrahydro-2H-pyran-4-yloxy)quinazolin-4-yloxy]phenyl}urea] | > 1000 | – | C (0.20 < C ≦ 0.40) | – | –
17 | COc1cc2c(Oc3cccc(NC(=O)Nc4cc(C(C)(C)C)on4)c3)ncnc2cc1O[C@H]1CCN(CC(F)F)C1 [Ex 103, (S)-1-(5-tert-butylisoxazol-3-yl)-3-(3-{7-[1-(2,2-difluoroethyl)pyrrolidin-3-yloxy]-6-methoxyquinazolin-4-yloxy}phenyl)urea] | > 1000 | – | – | > 1000 | C* (0.20 < C ≦ 0.40)
18 | COc1cc2ncnc(Oc3cccc(NC(=O)Nc4cc(C(C)(C)C)on4)c3)c2cc1O[C@H]1CCN(C(=O)OC(C)(C)C)C1 [Ex 108, (S)-tert-butyl 3-(4-(3-(3-(5-tert-butylisoxazole-3-yl)ureido)phenoxy)-7-methoxyquinazolin-6-yloxy)pyrrolidine-1-carboxylate] | > 1000 | – | C (0.20 < C ≦ 0.40) | > 1000 | –
19 | COc1cc2ncnc(Oc3cccc(NC(=O)Nc4cc(C5CCOCC5)no4)c3)c2cc1OC [Ex 123, 1-(3-(6,7-dimethoxyquinazolin-4-yloxy)phenyl)-3-(3-(tetrahydro-2H-pyran-4-yl)isoxazol-5-yl)urea] | > 1000 | – | B (0.10 < B ≦ 0.20) | – | –
20 | COCCOc1cc(NC(=O)Nc2cccc(Oc3ncnc4cc(OC)c(OC)cc34)c2)cc(C(F)(F)F)c1 [Ex 129, 1-(3-(6,7-dimethoxyquinazolin-4-yloxy)phenyl)-3-(3-(2-methoxyethoxy)-5-(trifluoromethyl)phenyl)urea] | > 1000 | – | B (0.10 < B ≦ 0.20) | – | –
21 | COc1cc2ncnc(Oc3cccc(NC(=O)Nc4cc(Cl)cc(C(F)(F)F)c4)c3)c2cc1OC [Ex 140, 1-(3-chloro-5-(trifluoromethyl)phenyl)-3-(3-(6,7-dimethoxyquinazolin-4-yloxy)phenyl)urea] | > 1000 | – | B (0.10 < B ≦ 0.20) | – | –
22 | COc1cc2ncnc(Oc3cccc(NC(=O)Nc4cc(C(F)(F)F)ccc4Cl)c3)c2cc1OC [Ex 142, 1-(2-chloro-5-(trifluoromethyl)phenyl)-3-(3-(6,7-dimethoxyquinazolin-4-yloxy)phenyl)urea] | > 1000 | – | B (0.10 < B ≦ 0.20) | – | –
23 | COc1cc2ncnc(Oc3cccc(NC(=O)Nc4nccc(C(F)(F)F)n4)c3)c2cc1OC [Ex 143, 1-(3-(6,7-dimethoxyquinazolin-4-yloxy)phenyl)-3-(4-(trifluoromethyl)pyrimidin-2-yl)urea] | > 1000 | – | A (A ≦ 0.10) | – | –
24 | COCCOc1cc(NC(=O)Nc2cccc(Oc3ncnc4cc(OC)c(OC)cc34)c2)ccc1C(F)(F)F [Ex 147, 1-(3-(6,7-dimethoxyquinazolin-4-yloxy)phenyl)-3-(3-(2-methoxyethoxy)-4-(trifluoromethyl)phenyl)urea] | > 1000 | – | – | – | B* (0.10 < B ≦ 0.20)
25 | COc1cc2ncnc(Oc3cccc(NC(=O)Nc4cc(CN5CCOCC5)cc(C(F)(F)F)c4)c3)c2cc1OC [Ex 151, 1-(3-(6,7-dimethoxyquinazolin-4-yloxy)phenyl)-3-(3-(morpholinomethyl)-5-(trifluoromethyl)phenyl)urea] | > 1000 | < 250 | – | – | C* (0.20 < C ≦ 0.40)
26 | COc1cc2ncnc(Oc3cccc(NC(=O)Nc4cc(C(C)(C)C)nn4C)c3)c2cc1OC [Ex 158, 1-(3-tert-butyl-1-methyl-1H-pyrazol-5-yl)-3-(3-(6,7-dimethoxyquinazolin-4-yloxy)phenyl)urea] | > 1000 | < 250 | – | – | C* (0.20 < C ≦ 0.40)
27 | COc1cc2ncnc(Oc3cccc(NC(=O)Nc4cc(C5CCCC5)no4)c3)c2cc1OC [Ex 163, 1-(3-cyclopentylisoxazol-5-yl)-3-(3-(6,7-dimethoxyquinazolin-4-yloxy)phenyl)urea] | > 1000 | – | – | – | C* (0.20 < C ≦ 0.40)
28 | COc1cc2ncnc(Sc3cccc(NC(=O)Nc4ccc(C(C)(C)C)cc4)c3)c2cc1OC [Ex 174, 1-(4-tert-butylphenyl)-3-(3-(6,7-dimethoxyquinazolin-4-ylthio)phenyl)urea] | > 1000 | – | C (0.20 < C ≦ 0.40) | – | –
29 | COc1cc2ncnc(Sc3cccc(NC(=O)Nc4ccc(C(F)(F)F)c(F)c4)c3)c2cc1OC [Ex 188, 1-(3-(6,7-dimethoxyquinazolin-4-ylthio)phenyl)-3-(3-fluoro-4-(trifluoromethyl)phenyl)urea] | > 1000 | – | – | – | B* (0.10 < B ≦ 0.20)
30 | COc1cc2ncnc(Sc3cccc(NC(=O)Nc4cc(CN5CCOCC5)cc(C(F)(F)F)c4)c3)c2cc1OC [Ex 189, 1-(3-(6,7-dimethoxyquinazolin-4-ylthio)phenyl)-3-(3-(morpholinomethyl)-5-(trifluoromethyl)phenyl)urea] | > 1000 | – | – | – | C* (0.20 < C ≦ 0.40)
